Assays:
CYP3A4 = assay: In vitro CYP induction
[1] = Diastolic blood pressure (vital signs)
Protocol: The Investigational Medicinal Product (IMP) R(−)-ketamine hydrochloride in sterile water for intravenous injection was investigated as an […] treatment of TRD. The International Union of Pure and Applied Chemistry (IUPAC) name is of the IMP is (2R)-2-(2-chlorophenyl)-2-(methylamino)cyclohexan-1-one. Subjects received the solution at either 30 mg or 60 mg dose, or a placebo. The IMP or placebo was administered on Day 1 as a single IV infusion via an electronic infusion pump over 40 minutes. The duration of study participation for each subject was up to 29 days including a screening period, a 3-day in-clinic visit, and 2 follow-up visits. 101 subjects were enrolled in approximately 20 study centers in the EU and the US.
Tympanic or temporal temperature, heart rate, blood pressure (SBP/DBP), respiratory rate, and SpO2 were assessed. Blood pressure and pulse measurements will be assessed with a completely automated device while the subject is supine or semi-supine. Manual techniques will be used only if an automated device is not available. Blood pressure and pulse measurements should be preceded by at least 5 minutes of rest for the subject in a quiet setting without distractions (e.g., television, cell phones). An abnormal blood pressure value at screening may be repeated once after 5 minutes of relaxation to determine the subject's eligibility. Blood pressure was recorded using the same arm and position (supine or semi-supine) throughout the study, where possible. Vital signs (to be taken before blood collection for laboratory tests) consisted of 1 pulse and 3 blood pressure measurements (3 consecutive blood pressure readings will be recorded at intervals of at least 1 minute). The average of the 3 blood pressure readings was recorded in the CRF. A pulse oximeter was used to measure peripheral capillary oxygen saturation (SpO2) continuously from pre-dose until 4-hours post-dose. A pulse oximeter was clipped onto the finger or foot of the subject, and light will be sent through the finger or foot and measured on the other side.
In these tables, baseline value is defined as the last non-missing value prior to study drug administration.

rats [2] = assay: Alcohol tolerance; type: in vivo
healthy volunteers = conditions: up to 1 mg/kg IV or 1.8 mg/kg intramuscular; cited from earlier work
[3] = system: mouse model of morphine addiction; assay: Mouse model of morphine addiction; type: in vivo; conditions: co-administered to mice
rats [4] = assay: Precipitated withdrawal from morphine; type: in vivo
[5] = system: phencyclidine site of the N-methyl-D-aspartate (NMDA) receptor; conditions: compared with racemic ketamine or S(+)-ketamine; cited from earlier work
rats [6] = assay: Anhedonic or negative affective side effects
[7] = in vivo; cited from earlier work
[8] = system: cytochrome P450 (CYP) isoforms; assay: In vitro drug metabolism: CYP isoforms involved
[9] = system: mouse model of depression; conditions: cited from earlier work

SMILES: CN[C@@]1(c2ccccc2Cl)CCCCC1=O.Cl [R(−)-ketamine, (2R)-2-(2-chlorophenyl)-2-(methylamino)cyclohexan-1-one]
- CYP3A4 induction (CYP3A4): inducer
- Subjects with change from baseline diastolic blood pressure >25 mmHg, number ([1]; 30 mg): 1 n
- Subjects with change from baseline diastolic blood pressure >25 mmHg, percent ([1]; 30 mg): 3.0%
- Subjects with post-baseline diastolic blood pressure >110 mmHg, number ([1]; 30 mg): 0 n
- Subjects with post-baseline diastolic blood pressure >110 mmHg, percent ([1]; 30 mg): 0.0%
- Diastolic Blood Pressure: Mean ([1]; 30 mg, Day 1, 15 minutes): 77.4 mmHg
- Diastolic Blood Pressure: Median ([1]; 30 mg, Day 1, 15 minutes): 79.0 mmHg
- Diastolic Blood Pressure: Mean ([1]; 30 mg, Day 1, 40 minutes): 77.7 mmHg
- Diastolic Blood Pressure: Median ([1]; 30 mg, Day 1, 40 minutes): 81.0 mmHg
- Diastolic Blood Pressure: Mean ([1]; 30 mg, Day 1, 60 minutes): 75.4 mmHg
- Diastolic Blood Pressure: Median ([1]; 30 mg, Day 1, 60 minutes): 75.0 mmHg
- Diastolic Blood Pressure: Mean ([1]; 30 mg, Day 1, 2 hours): 77.3 mmHg
- Diastolic Blood Pressure: Median ([1]; 30 mg, Day 1, 2 hours): 78.0 mmHg
- Diastolic Blood Pressure: Mean ([1]; 30 mg, Day 1, 4 hours): 76.1 mmHg
- Diastolic Blood Pressure: Median ([1]; 30 mg, Day 1, 4 hours): 76.0 mmHg
- Diastolic Blood Pressure: Mean ([1]; 30 mg, Day 1, 6 hours): 75.2 mmHg
- Diastolic Blood Pressure: Median ([1]; 30 mg, Day 1, 6 hours): 75.0 mmHg
- Diastolic Blood Pressure: Mean ([1]; 30 mg, Day 2 - Discharge): 74.7 mmHg
- Diastolic Blood Pressure: Median ([1]; 30 mg, Day 2 - Discharge): 75.0 mmHg
- Diastolic Blood Pressure: Mean ([1]; 30 mg, Day 8): 75.8 mmHg
- Diastolic Blood Pressure: Median ([1]; 30 mg, Day 8): 78.0 mmHg
- Diastolic Blood Pressure: Mean ([1]; 30 mg, Day 15): 78.9 mmHg
- Diastolic Blood Pressure: Median ([1]; 30 mg, Day 15): 79.0 mmHg
- Diastolic Blood Pressure: Change from Baseline, Mean ([1]; 30 mg, to Day 1, 15 minutes): 0.5 mmHg
- Diastolic Blood Pressure: Change from Baseline, Median ([1]; 30 mg, to Day 1, 15 minutes): 2.0 mmHg
- Diastolic Blood Pressure: Change from Baseline, Mean ([1]; 30 mg, to Day 1, 40 minutes): 1.0 mmHg
- Diastolic Blood Pressure: Change from Baseline, Median ([1]; 30 mg, to Day 1, 40 minutes): 1.0 mmHg
- Diastolic Blood Pressure: Change from Baseline, Mean ([1]; 30 mg, to Day 1, 60 minutes): −1.2 mmHg
- Diastolic Blood Pressure: Change from Baseline, Median ([1]; 30 mg, to Day 1, 60 minutes): −1.5 mmHg
- Diastolic Blood Pressure: Change from Baseline, Mean ([1]; 30 mg, to Day 1, 2 hours): 0.5 mmHg
- Diastolic Blood Pressure: Change from Baseline, Median ([1]; 30 mg, to Day 1, 2 hours): −1.0 mmHg
- Diastolic Blood Pressure: Change from Baseline, Mean ([1]; 30 mg, to Day 1, 4 hours): −0.6 mmHg
- Diastolic Blood Pressure: Change from Baseline, Median ([1]; 30 mg, to Day 1, 4 hours): −1.0 mmHg
- Diastolic Blood Pressure: Change from Baseline, Mean ([1]; 30 mg, to Day 1, 6 hours): −1.5 mmHg
- Diastolic Blood Pressure: Change from Baseline, Median ([1]; 30 mg, to Day 1, 6 hours): −3.0 mmHg
- Diastolic Blood Pressure: Change from Baseline, Mean ([1]; 30 mg, to Day 2 - Discharge): −2.0 mmHg
- Diastolic Blood Pressure: Change from Baseline, Median ([1]; 30 mg, to Day 2 - Discharge): −2.0 mmHg
- Diastolic Blood Pressure: Change from Baseline, Mean ([1]; 30 mg, to Day 8): −1.0 mmHg
- Diastolic Blood Pressure: Change from Baseline, Median ([1]; 30 mg, to Day 8): −1.0 mmHg
- Diastolic Blood Pressure: Change from Baseline, Mean ([1]; 30 mg, to Day 15): 2.1 mmHg
- Diastolic Blood Pressure: Change from Baseline, Median ([1]; 30 mg, to Day 15): 1.0 mmHg
- Subjects with change from baseline diastolic blood pressure >25 mmHg, number ([1]; 60 mg): 1 n
- Subjects with change from baseline diastolic blood pressure >25 mmHg, percent ([1]; 60 mg): 2.9%
- Subjects with post-baseline diastolic blood pressure >110 mmHg, number ([1]; 60 mg): 0 n
- Subjects with post-baseline diastolic blood pressure >110 mmHg, percent ([1]; 60 mg): 0.0%
- Diastolic Blood Pressure: Mean ([1]; 60 mg, Day 1, 15 minutes): 78.8 mmHg
- Diastolic Blood Pressure: Median ([1]; 60 mg, Day 1, 15 minutes): 79.5 mmHg
- Diastolic Blood Pressure: Mean ([1]; 60 mg, Day 1, 40 minutes): 78.1 mmHg
- Diastolic Blood Pressure: Median ([1]; 60 mg, Day 1, 40 minutes): 78.0 mmHg
- Diastolic Blood Pressure: Mean ([1]; 60 mg, Day 1, 60 minutes): 79.5 mmHg
- Diastolic Blood Pressure: Median ([1]; 60 mg, Day 1, 60 minutes): 77.0 mmHg
- Diastolic Blood Pressure: Mean ([1]; 60 mg, Day 1, 2 hours): 75.7 mmHg
- Diastolic Blood Pressure: Median ([1]; 60 mg, Day 1, 2 hours): 75.0 mmHg
- Diastolic Blood Pressure: Mean ([1]; 60 mg, Day 1, 4 hours): 75.1 mmHg
- Diastolic Blood Pressure: Median ([1]; 60 mg, Day 1, 4 hours): 74.0 mmHg
- Diastolic Blood Pressure: Mean ([1]; 60 mg, Day 1, 6 hours): 75.8 mmHg
- Diastolic Blood Pressure: Median ([1]; 60 mg, Day 1, 6 hours): 76.5 mmHg
- Diastolic Blood Pressure: Mean ([1]; 60 mg, Day 2 - Discharge): 77.2 mmHg
- Diastolic Blood Pressure: Median ([1]; 60 mg, Day 2 - Discharge): 77.0 mmHg
- Diastolic Blood Pressure: Mean ([1]; 60 mg, Day 8): 78.7 mmHg
- Diastolic Blood Pressure: Median ([1]; 60 mg, Day 8): 78.0 mmHg
- Diastolic Blood Pressure: Mean ([1]; 60 mg, Day 15): 77.5 mmHg
- Diastolic Blood Pressure: Median ([1]; 60 mg, Day 15): 78.0 mmHg
- Diastolic Blood Pressure: Change from Baseline, Mean ([1]; 60 mg, to Day 1, 15 minutes): 2.2 mmHg
- Diastolic Blood Pressure: Change from Baseline, Median ([1]; 60 mg, to Day 1, 15 minutes): 1.5 mmHg
- Diastolic Blood Pressure: Change from Baseline, Mean ([1]; 60 mg, to Day 1, 40 minutes): 2.4 mmHg
- Diastolic Blood Pressure: Change from Baseline, Median ([1]; 60 mg, to Day 1, 40 minutes): 2.0 mmHg
- Diastolic Blood Pressure: Change from Baseline, Mean ([1]; 60 mg, to Day 1, 60 minutes): 3.2 mmHg
- Diastolic Blood Pressure: Change from Baseline, Median ([1]; 60 mg, to Day 1, 60 minutes): 4.0 mmHg
- Diastolic Blood Pressure: Change from Baseline, Mean ([1]; 60 mg, to Day 1, 2 hours): −0.1 mmHg
- Diastolic Blood Pressure: Change from Baseline, Median ([1]; 60 mg, to Day 1, 2 hours): 0.0 mmHg
- Diastolic Blood Pressure: Change from Baseline, Mean ([1]; 60 mg, to Day 1, 4 hours): −0.6 mmHg
- Diastolic Blood Pressure: Change from Baseline, Median ([1]; 60 mg, to Day 1, 4 hours): 0.0 mmHg
- Diastolic Blood Pressure: Change from Baseline, Mean ([1]; 60 mg, to Day 1, 6 hours): −0.0 mmHg
- Diastolic Blood Pressure: Change from Baseline, Median ([1]; 60 mg, to Day 1, 6 hours): −1.0 mmHg
- Diastolic Blood Pressure: Change from Baseline, Mean ([1]; 60 mg, to Day 2 - Discharge): 1.5 mmHg
- Diastolic Blood Pressure: Change from Baseline, Median ([1]; 60 mg, to Day 2 - Discharge): 1.0 mmHg
- Diastolic Blood Pressure: Change from Baseline, Mean ([1]; 60 mg, to Day 8): 3.0 mmHg
- Diastolic Blood Pressure: Change from Baseline, Median ([1]; 60 mg, to Day 8): 3.0 mmHg
- Diastolic Blood Pressure: Change from Baseline, Mean ([1]; 60 mg, to Day 15): 1.7 mmHg
- Diastolic Blood Pressure: Change from Baseline, Median ([1]; 60 mg, to Day 15): 1.0 mmHg
- Effect on alcohol tolerance (rats [2]): mitigated the effects of alcohol tolerance
- Psychotomimetic and dissociative-like effects compared with S(+)-ketamine (healthy volunteers): less pronounced psychotomimetic and dissociative-like effects
- Effect on the addictive properties of morphine [3]: significantly attenuated the addictive properties of morphine
- Effect on symptoms of precipitated withdrawal from morphine (rats [4]): significantly ameliorated the symptoms of precipitated withdrawal from morphine
- Lower affinity to the NMDA receptor [5]: 4 fold
- Anhedonic or negative affective side effects (rats [6]): no anhedonic or negative affective side effects
- Side effects (hyperlocomotion, prepulse inhibition deficit, drug dependence) [7]: did not
- CYP isoforms involved in the metabolism [8]: primarily CYP2B6, CYP3A4/5, and CYP2C19
- Antidepressant effects on depression-like symptoms [9]: more potent antidepressant effects on the depression-like symptoms when compared to S(+)-ketamine

From patent US20260027068A1, “METHODS OF ADM[…]-KETAMINE” (Perception Neuroscience, Inc., priority 2022, published 2026)
